Data: paper PMC6968775, “Assessment of contribution of BCRP to intestinal absorption of various drugs using portal‐systemic blood concentration difference model in mice” (Pharmacology Research & Perspectives, 2020)
“And” between values parts separate entries of the source, which are not always exact repeats. Identical values can stand only once.

Key:
BCRP [1] = tested on: BCRP
P‐gp [2] = details: Caco‐2 permeability study; unpublished data; ref Fujita et al, manuscript in preparation; cited from earlier work
[3] = Pharmacokinetics after iv and oral administration, P‐S difference method, wild‐type mice; assay type: in vivo
Experimental: (§1) Male Mdr1a/1b(−/−) and Bcrp(−/−) mice, and WT mice of the same genetic background (FVB) were obtained from Taconic Farms (Germantown, NY, USA). […] Food and water were available ad libitum. All experiments were carried out in accordance with the principles and procedures outlined in the National Institutes of Health Guide for the Care and Use of Laboratory.
(§2) All the mice were fasted overnight with free access to tap water. In the intravenous administration studies, model compounds were administered via the tail vein at doses of 1 mg/kg (n = 3). Following administration, blood samples were collected from the abdominal vein of the anesthetized mice at 0.083, 0.17, 0.5, 1, 2, 4, and 8 hours. […] Following administration, blood samples were taken from the portal and abdominal veins of the anesthetized mice at 0.083, 0.17, 0.5, 1, 2, 4, and 8 hours. The plasma samples were separated by centrifugation at 14 000g for 10 minutes at 4°C and stored at −30°C until analysis.
(§3) After organic layer was evaporated at 60°C, the resultant residues were dissolved in a mobile phase. For the determination of topotecan and sulfasalazine, plasma samples were mixed with acetonitrile, centrifuged at 750 g for 10 minutes at 4°C, and the supernatants were collected. After the evaporation of the supernatants, the residues were dissolved in a mobile phase, and acidified with phosphoric acid for topotecan. All drugs were analyzed by HPLC system (Shimadzu LC‐10AS pump, Shimadzu SIL‐10A autosampler) equipped with a reverse‐phase column (COSMOSIL 5C18‐AR‐II, 3.5‐μm […], 4.6 × 150 mm).
(§4) Elimination rate constant (k e) was determined by the least squares regression analysis of plasma concentration vs time curve. Elimination half‐life (t 1/2) was calculated using Eq.1:(1) t1/2=ln2/ke
(§5) Area under plasma concentration‐time curve (AUC) and area under the first moment curve (AUMC) from time 0 to infinity were calculated by trapezoidal rule.
(§6) Absorption rate constant (k a) after oral administration was calculated by the nonlinear least squares fitting with program MULTI.12
(§7) BA was calculated by Eq.5:(7) BA=AUCoral/AUCiv×Doseiv/Doseoral×100 where AUCoral is AUC after oral administration. Doseiv and Doseoral are administered dose in the intravenous and oral administration study, respectively.
(§8) Hepatic availability (F h) was calculated by Eq.6:(8) Fh=F/Fa×Fg

P‐gp [4] = details: in vivo (mice); calculated from F a F g in WT, Bcrp(−/−) and Mdr1a/1b(−/−) mice (Eq. 12)
[5] = Blood/plasma concentration ratio (R b) in fresh whole blood; assay type: in vitro ADME, FVB mice; details: fresh whole blood, FVB mouse whole blood, 37°C
Experimental: Similarly, the model compounds were added to plasma, and reference blood samples were obtained according to the same procedure. These concentrations of drugs in each sample were analyzed using HPLC (C B and C P, respectively). R b value was calculated by dividing C B by C P.

[6] = Pharmacokinetics after iv and oral administration, P‐S difference method, Mdr1a/1b(−/−) mice; assay type: in vivo
Experimental: as §1, §2, §3, §4, §5, §6, §7, §8

[7] = Pharmacokinetics after iv and oral administration, P‐S difference method, Bcrp(−/−) mice; assay type: in vivo
Experimental: as §1, §2, §3, §4, §5, §6, §7, §8

BCRP [8] = details: Caco‐2 permeability study; ref (10); Kawahara et al, manuscript in revision; cited from earlier work
[9] = wild‐type mice, p.o. (ciprofloxacin 1, nitrofurantoin 2, topotecan 1, sulfasalazine 5 mg/kg)
[10] = Mdr1a/1b(−/−) mice, p.o. (ciprofloxacin 1, nitrofurantoin 2, topotecan 1, sulfasalazine 5 mg/kg)
[11] = male, Mdr1a/1b(−/−) (FVB background), mouse, systemic plasma (abdominal vein), po
[12] = Bcrp(−/−) mice, p.o. (ciprofloxacin 1, nitrofurantoin 2, topotecan 1, sulfasalazine 5 mg/kg)

AQ bcrp (in vivo) (BCRP [1]; calculated from k a in WT, Bcrp(−/−) and Mdr1a/1b(−/−) mice (Eq. 9)): 0.13
R bcrp (rate of BCRP contribution) (BCRP [1]; in vivo (mice), calculated from F a F g in WT, Bcrp(−/−) and Mdr1a/1b(−/−) mice (Eq. 11)): 0.15
k a, wt ([3]; Table 5 summary, WT mice, oral administration): 5.80
(F a F g) wt ([3]; as fraction, WT mice, oral administration): 0.64
clearance ([3]; male, FVB (wild-type), mouse, plasma (systemic, abdominal vein), wild‐type mice, iv 1 mg/kg, read-out: CL tot (converted)): 2.28 L/h/kg
Vd ([3]; male, FVB (wild-type), mouse, plasma (systemic, abdominal vein), wild‐type mice, iv 1 mg/kg, read-out: Vdss): 1.94 L/kg
half-life ([3]; male, FVB (wild-type), mouse, plasma, iv, 1 mg/kg, wild‐type mice, iv 1 mg/kg): 172 min
AUC(0-inf) ([3]; male, FVB (wild-type), mouse, plasma, iv, 1 mg/kg, wild‐type mice, iv 1 mg/kg, read-out: AUC 0→∞): 1840 nM·h
Tmax ([3]; male, FVB (wild-type), mouse, portal vein plasma, po): 10.2 min
AUC(0-inf) ([3]; male, FVB (wild-type), mouse, portal vein plasma, po, wild‐type mice, p.o. (ciprofloxacin 1, nitrofurantoin 2, topotecan 1, sulfasalazine 5 mg/kg), portal vein (pv) plasma, read-out: AUC 0→∞ (AUCpv)): 2540 nM·h
Tmax ([3]; male, FVB (wild-type), mouse, systemic plasma (abdominal vein), po): 10.2 min
half-life ([3]; male, FVB (wild-type), mouse, systemic plasma (abdominal vein), po, wild‐type mice, p.o. (ciprofloxacin 1, nitrofurantoin 2, topotecan 1, sulfasalazine 5 mg/kg), systemic (sys) plasma): 55.8 min
AUC(0-inf) ([3]; male, FVB (wild-type), mouse, systemic plasma (abdominal vein), po, wild‐type mice, p.o. (ciprofloxacin 1, nitrofurantoin 2, topotecan 1, sulfasalazine 5 mg/kg), systemic (sys) plasma, read-out: AUC 0→∞ (AUCsys)): 1840 nM·h
F h [3, 9]: 78.3%
k a [3, 9]: 5.8 h⁻¹ and 5.80 h⁻¹
BA ([3]; wild‐type mice, p.o. (ciprofloxacin 1, nitrofurantoin 2, topotecan 1, sulfasalazine 5 mg/kg) vs iv 1 mg/kg): 49.9%
F a F g ([3]; wild‐type mice, p.o. (ciprofloxacin 1, nitrofurantoin 2, topotecan 1, sulfasalazine 5 mg/kg), P‐S difference method): 63.7%
AUC 0→∞ (AUCpv) ([3]; wild‐type mice, p.o. (ciprofloxacin 1, nitrofurantoin 2, topotecan 1, sulfasalazine 5 mg/kg), portal vein (pv) plasma): 2550 nM·h
AUC 0→∞ (AUCsys) ([3]; wild‐type mice, p.o. (ciprofloxacin 1, nitrofurantoin 2, topotecan 1, sulfasalazine 5 mg/kg), systemic (sys) plasma): 1840 nM·h
R P‐gp (rate of P‐gp contribution) (P‐gp [4]): 0.13
blood plasma ratio at 15 min, 1 µg/mL [5]: 1.18 ± 0.1
F h [6, 10]: 79.9%
k a [6, 10]: 7.2 h⁻¹ and 7.20 h⁻¹
BA ([6]; Mdr1a/1b(−/−) mice, p.o. (ciprofloxacin 1, nitrofurantoin 2, topotecan 1, sulfasalazine 5 mg/kg) vs iv 1 mg/kg): 60.0%
F a F g ([6]; Mdr1a/1b(−/−) mice, p.o. (ciprofloxacin 1, nitrofurantoin 2, topotecan 1, sulfasalazine 5 mg/kg), P‐S difference method): 75.2%
AUC 0→∞ (AUCpv) ([6]; Mdr1a/1b(−/−) mice, p.o. (ciprofloxacin 1, nitrofurantoin 2, topotecan 1, sulfasalazine 5 mg/kg), portal vein (pv) plasma): 3180 nM·h
AUC 0→∞ (AUCsys) ([6]; Mdr1a/1b(−/−) mice, p.o. (ciprofloxacin 1, nitrofurantoin 2, topotecan 1, sulfasalazine 5 mg/kg), systemic (sys) plasma): 2350 nM·h
k a, P‐gp ([6]; Table 5 summary, Mdr1a/1b(−/−) mice, oral administration): 7.20
(F a F g)P‐gp ([6]; as fraction, Mdr1a/1b(−/−) mice, oral administration): 0.75
clearance ([6]; male, FVB Mdr1a/1b(−/−), mouse, plasma (systemic, abdominal vein), Mdr1a/1b(−/−) mice, iv 1 mg/kg, read-out: CL tot (converted)): 2.15 L/h/kg
Vd ([6]; male, FVB Mdr1a/1b(−/−), mouse, plasma (systemic, abdominal vein), Mdr1a/1b(−/−) mice, iv 1 mg/kg, read-out: Vdss): 1.36 L/kg
AUC(0-inf) ([6]; male, FVB Mdr1a/1b(−/−), mouse, portal vein plasma, po, Mdr1a/1b(−/−) mice, p.o. (ciprofloxacin 1, nitrofurantoin 2, topotecan 1, sulfasalazine 5 mg/kg), portal vein (pv) plasma, read-out: AUC 0→∞ (AUCpv)): 3180 nM·h
AUC(0-inf) ([6]; male, FVB Mdr1a/1b(−/−), mouse, systemic plasma (abdominal vein), po, Mdr1a/1b(−/−) mice, p.o. (ciprofloxacin 1, nitrofurantoin 2, topotecan 1, sulfasalazine 5 mg/kg), systemic (sys) plasma, read-out: AUC 0→∞ (AUCsys)): 2340 nM·h
AUC(0-inf) ([6]; male, Mdr1a/1b(−/−) (FVB background), mouse, plasma, iv, 1 mg/kg, Mdr1a/1b(−/−) mice, iv 1 mg/kg, read-out: AUC 0→∞): 1950 nM·h
half-life ([6]; male, Mdr1a/1b(−/−) (FVB background), mouse, plasma, Mdr1a/1b(−/−) mice, iv 1 mg/kg): 70.2 min
Tmax ([6]; male, Mdr1a/1b(−/−) (FVB background), mouse, portal vein plasma, po): 10.2 min
Tmax [6, 11]: 10.2 min
half-life [6, 11]: 73.2 min
AUC pv and AUC sys after oral administration, Mdr1a/1b(−/−) mice vs WT mice ([6]; oral administration): approximately 1.5 fold
F h [7, 12]: 90.0%
k a [7, 12]: 6.9 h⁻¹ and 6.89 h⁻¹
BA ([7]; Bcrp(−/−) mice, p.o. (ciprofloxacin 1, nitrofurantoin 2, topotecan 1, sulfasalazine 5 mg/kg) vs iv 1 mg/kg): 69.4%
F a F g ([7]; Bcrp(−/−) mice, p.o. (ciprofloxacin 1, nitrofurantoin 2, topotecan 1, sulfasalazine 5 mg/kg), P‐S difference method): 77.1%
AUC 0→∞ (AUCpv) ([7]; Bcrp(−/−) mice, p.o. (ciprofloxacin 1, nitrofurantoin 2, topotecan 1, sulfasalazine 5 mg/kg), portal vein (pv) plasma): 3410 nM·h
AUC 0→∞ (AUCsys) ([7]; Bcrp(−/−) mice, p.o. (ciprofloxacin 1, nitrofurantoin 2, topotecan 1, sulfasalazine 5 mg/kg), systemic (sys) plasma): 2560 nM·h
k a, bcrp ([7]; Table 5 summary, Bcrp(−/−) mice, oral administration): 6.89
(F a F g)bcrp ([7]; as fraction, Bcrp(−/−) mice, oral administration): 0.77
half-life ([7]; male, Bcrp(−/−) (FVB background), mouse, plasma, iv, 1 mg/kg, Bcrp(−/−) mice, iv 1 mg/kg): 84.6 min
Tmax ([7]; male, Bcrp(−/−) (FVB background), mouse, portal vein plasma, po): 10.2 min
Tmax ([7]; male, Bcrp(−/−) (FVB background), mouse, systemic plasma (abdominal vein), po): 10.2 min
AUC(0-inf) ([7]; male, FVB Bcrp(−/−), mouse, plasma (systemic, abdominal vein), iv, 1 mg/kg, Bcrp(−/−) mice, iv 1 mg/kg, read-out: AUC 0→∞): 1840 nM·h
clearance ([7]; male, FVB Bcrp(−/−), mouse, plasma (systemic, abdominal vein), Bcrp(−/−) mice, iv 1 mg/kg, read-out: CL tot (converted)): 2.28 L/h/kg
Vd ([7]; male, FVB Bcrp(−/−), mouse, plasma (systemic, abdominal vein), Bcrp(−/−) mice, iv 1 mg/kg, read-out: Vdss): 1.45 L/kg
AUC(0-inf) ([7]; male, FVB Bcrp(−/−), mouse, portal vein plasma, po, Bcrp(−/−) mice, p.o. (ciprofloxacin 1, nitrofurantoin 2, topotecan 1, sulfasalazine 5 mg/kg), portal vein (pv) plasma, read-out: AUC 0→∞ (AUCpv)): 3410 nM·h
half-life ([7]; male, FVB Bcrp(−/−), mouse, systemic plasma (abdominal vein), po, Bcrp(−/−) mice, p.o. (ciprofloxacin 1, nitrofurantoin 2, topotecan 1, sulfasalazine 5 mg/kg), systemic (sys) plasma): 75 min
AUC(0-inf) ([7]; male, FVB Bcrp(−/−), mouse, systemic plasma (abdominal vein), po, Bcrp(−/−) mice, p.o. (ciprofloxacin 1, nitrofurantoin 2, topotecan 1, sulfasalazine 5 mg/kg), systemic (sys) plasma, read-out: AUC 0→∞ (AUCsys)): 2560 nM·h
AUC pv and AUC sys after oral administration, Bcrp(−/−) mice vs WT mice ([7]; oral administration): approximately 1.5 fold
Structure (SMILES): O=C1CN(/N=C/c2ccc([N+](=O)[O-])o2)C(=O)N1 [nitrofurantoin, Nitrofurantoin]
AQp‐gp in vitro (Caco‐2) (P‐gp [2]): 0.09
AQbcrp in vitro (Caco‐2) (BCRP [8]): 0.37
